Measured values published in patent EP0020230A2, “p-Biphenyl-4-methyl-2-butenoic acids, process for their preparation, pharmaceutical compositions containing them and their use” (PIERRE FABRE S.A., priority 1979, dated 1980).
Read-outs that look alike come from different tables or passages of the source.

Assays:
[1] = acute oral toxicity (LD50, method of Miller and Tainter); conditions: in vivo, mouse about 20 g, read-out: DL 50 voie orale
From the text: L'étude de la toxicité a été effectuée chez la souris conventionnelle pesant environ 20 grammes..
Les substances ont été administrées par voie orale, la DL 50 est calculée suivant la méthode de L.C. Miller et M.L. Tainter, Proc. Soc. Exper. Biol. Med., 1944, 57, 261.

[2] = tested on: injection de phényl benzoquinone; assay: analgesic activity, phenylbenzoquinone test (Siegmund et al.); format: in vivo
Experimental: L'activité antalgique a été étudiée selon Siegmund et Coll.
Les composés sont administrés par voie orale 30 minutes avant l'injection de phényl benzoquinone.

[3] = tested on: oedème provoqué par injection de carragénine dans la patte du rat; assay: carrageenan-induced paw oedema (Winter, Risley, Nuss); format: in vivo; conditions: oral, suspension in tween-water, 2 hours before the test, read-out: ED 50 (dose diminuant de 50 % le volume de la patte)
From the text: Les propriétés anti-inflammatoires ont été révélées par le test de l'oedème provoqué par injection de carragénine dans la patte du rat selon la technique de C. Winter, E. Risley, et G. Nuss. Proc. Soc. Exper. Biol. Med., 1962, 111, 544-547.
Les produits ont été administrés par voie orale en suspension dans le mélange tween-eau 2 heures avant l'expérimentation.

[4] = tested on: granulome aux pellets de coton; assay: cotton pellet granuloma (Meier, Schuler, Desaulles); format: in vivo; conditions: 120 h; dose from which a clear reduction is seen; results read after 5 days; read-out: réduction nette du poids du granulome à partir de
Experimental: Les résultats obtenus sur le granulome aux pellets de coton selon la technique de R. Meier, Schuler et Desaulles - Experientia 1950, 6, 469, permettent de mettre en évidence une réduction nette du poids du granulome à partir de 10 mg/kg pour le F 1920 et le F 2073.
Les résultats sont relevés au bout de 5 jours et aucune modification n'est observée, comparativement aux témoins, en ce qui concerne

[5] = oral, 30 minutes before injection of phenylbenzoquinone, read-out: DE 50 (the source's name)

SMILES: CC(/C=C/c1ccc(-c2ccccc2F)cc1)C(=O)O (stereo not drawn) [Acide trans orthofluorophényl-4' phényl-4 méthyl-2 buten-3 oïque]
- LD50 [1]: 1000 mg/kg
- ED50 [2, 5]: 5 mg/kg

SMILES: CC(/C=C/c1ccc(-c2ccccc2)cc1)C(=O)O (stereo not drawn) [F 1920, acide trans p-biphényl-4, méthyl-2 buten-3 oïque]
- LD50 [1]: 500 mg/kg
- ED50 [3]: 25 mg/kg
- minimal effective dose [4]: ≥ 10 mg/kg
- ED50 [2, 5]: 10 mg/kg

SMILES: CC(/C=C/c1ccc(-c2ccccc2Cl)cc1)C(=O)O (stereo not drawn) [F 2073, acide trans orthochlorophényl-4' phényl-4 méthyl-2 buten-3 oïque]
- LD50 [1]: 750 mg/kg
- ED50 [3]: 15 mg/kg
- minimal effective dose [4]: ≥ 10 mg/kg
- ED50 [2, 5]: 7 mg/kg

SMILES: CC(=O)Oc1ccccc1C(=O)O [Acide acétyl salicylique, reference compound]
- ED50 ([2]; po, read-out: DE 50): 100 mg/kg

SMILES: O=C(OCC(O)CO)c1ccccc1Nc1ccnc2cc(Cl)ccc12 (stereo not drawn) [Glafénine, reference compound]
- ED50 [2, 5]: 36 mg/kg
